In patent US20240092739A1, “COMPOUNDS AND METHODS OF USE” (Ferro Therapeutics, Inc, priority 2020, published 2024):
Where two headings read alike, the source gives them in different places.

How the values were obtained:
[1] = tested on: 786-O cells + Ferrastatin-1; test: GPX4 inhibition assay: cell proliferation (Alamar Blue) in 786-O cells with ferrostatin rescue; type: cell-based, human; conditions: 786-O cells with Ferrastatin-1 (rescue), read-out: Cell proliferation IC50 (μM) 786-O + Ferrastatin-1
Experimental: (§1) Cells (SJSA-1, 786-0 and A431) were seeded (5000 cells/100 μL/well) in 96-well tissue culture plate and incubated at 37° C./500 CO2 for 16-24 hours. The cells were then treated with compounds (25 μL of 5×). The compound concentrations were 10-0.0005 μM prepared in 3-fold serial dilutions with final DMSO concentration of 1%. The plates were then incubated for 24 h at 37° C./[…] in a moist environment. Then Alamar Blue™ reagent (final concentration 1×-12.5 μL) was added to each well and incubated for 1.5 hours at 37° C./500 CO2. The plates were read on fluorescence reader at 540 nm excitation and 590 nm emission wavelengths. The IC50 values were subsequently determined using a sigmoidal dose-response curve (variable slope) in GraphPad Prism® 5 software. Tables A-3 and B-11 show cell proliferation data for exemplary compounds as described herein.
Studies have shown that lipophilic antioxidants, such as ferrostatin, can rescue cells from GPX4 inhibition-induced ferroptosis. For instance, mesenchymal state GPX4-knockout cells can survive in the presence of ferrostatin, however, when the supply of ferrostatin is terminated, these cells undergo ferroptosis (see, e.g., Viswanathan et al., Nature 547:453-7, 2017). […] Accordingly, the ability of a molecule to induce ferroptotic cancer cell death, and that such ability is admonished by the addition of ferrostatin, is clear indication that the molecule is an GPX4 inhibitor. Cell proliferation data for exemplary compounds with and without ferrostatin can be seen in Table A-3.

A431 cells = test: Cell proliferation (Alamar Blue) assay, A431 cells; type: cell-based; conditions: Homo sapiens
Experimental: (§2) Cell viability assay was performed to assess the potency of the compounds in human cancer cell lines 786-0 (renal cell carcinoma) and SJSA-1 (osteosarcoma). Additional cell lines, such as pancreatic cancer cell lines (Panc 02.13, BxPC-3, Panc 12, Panc 02.03, Panc 6.03, PSN-1, HPAC, and Capan-1), prostate cancer cell lines (PC-3, DU145, […], NCI-H660, 1PH1 LNCaP, BM-1604, and MDA PCa 2b), etc., can be tested in a similar method.
as §1

[2] = tested on: 786-O (renal cell carcinoma) cells; test: Cell proliferation (Alamar Blue) assay, 786-O cells; type: cell-based; conditions: Homo sapiens
Experimental: as §2, §1

[3] = A-431, A431 cells, 24 h compound incubation, Alamar Blue, read-out: Cell proliferation IC50 (μM) A431
[4] = 786-0, 786-O cells, 24 h compound incubation, Alamar Blue, read-out: Cell proliferation IC50 (μM) 786-O
[5] = A-431, A431 cells, 24 h compound treatment, Alamar Blue, read-out: IC50 (μM) A431
[6] = 786-0, 786-O cells, 24 h compound treatment, Alamar Blue, read-out: IC50 (μM) 786-O

Row | Compound | IC50 [1] [µM] | IC50 [2, 4] [µM] | IC50 (A431 cells; [5]) [µM] | IC50 [2, 6] [µM] | other results
1 | COc1ccc2c(c1)C[C@H](C1CCC1)N(C(=O)C#C[Si](C)(C)C)[C@@H]2c1ccc(NC23CC4CC(CC(C4)C2)C3)cc1 (stereo in doubt) [Compound A-8, 1-((1R,3R)-1-(4-(((3S,5S,7S)-adamantan-1-yl)amino)phenyl)-3-cyclobutyl-6-methoxy-3,4-dihydroisoquinolin-2(1H)-yl)-3-(trimethylsilyl)prop-2-yn-1-one] | 5.05 | 0.064 |  |  | IC50 (A431 cells; [3]): 4.79 µM
2 | CCCC[C@H]1Cc2cc(OC)ccc2[C@@H](c2ccc(NC34CC5CC(CC(C5)C3)C4)c(C#N)c2)N1C(=O)C#C[Si](C)(C)C (stereo in doubt) [Compound A-16, 2-(((3S,5S,7S)-adamantan-1-yl)amino)-5-((1R,3S)-3-butyl-6-methoxy-2-(3-(trimethylsilyl)propioloyl)-1,2,3,4-tetrahydroisoquinolin-1-yl)benzonitrile] | > 10 | 0.016 |  |  | IC50 (A431 cells; [3]): ≥ 10 µM
3 | CCCC[C@H]1Cc2cc(OC)ccc2[C@H](c2ccc(C#N)cc2)N1C(=O)C#C[Si](C)(C)C [Compound A-1] | 7 | 0.043 |  |  | IC50 (A431 cells; [3]): > 10 µM
4 | CCCC[C@H]1Cc2c([nH]c3ccccc23)[C@H](c2ccc(NC3CCC3)cc2)N1C(=O)C#C[Si](C)(C)C [Compound A-2] | 8.63 |  |  |  | IC50 (A431 cells; A-431, 24 h, read-out: Cell proliferation IC50 (μM) A431): > 10 µM; IC50 ([2]; 786-0, 24 h, read-out: Cell proliferation IC50 (μM) 786-O): 0.009 µM
5 | CCC[C@H]1Cc2cc(OC)ccc2[C@H](c2ccc(NC34CC5CC(CC(C5)C3)C4)cc2)N1C(=O)C#C[Si](C)(C)C [Compound A-3] | > 1 | 0.029 |  |  | 
6 | CCC[C@H]1Cc2cc(OC)ccc2[C@@H](c2ccc(NC34CC5CC(CC(C5)C3)C4)cc2)N1C(=O)C#C[Si](C)(C)C [Compound A-4] | > 1 | 0.067 |  |  | IC50 (A431 cells; [3]): > 1 µM
7 | COC[C@H]1Cc2cc(OC)ccc2[C@@H](c2ccc(NC34CC5CC(CC(C5)C3)C4)cc2)N1C(=O)C#C[Si](C)(C)C [Compound A-5] | > 1 | 0.039 |  |  | IC50 (A431 cells; [3]): > 1 µM
8 | CCCC[C@H]1Cc2cc(OC)ccc2[C@H](c2ccc(NC34CC5CC(CC(C5)C3)C4)cc2)N1C(=O)C#C[Si](C)(C)C [Compound A-6, 1-((1S,3S)-1-(4-(((1s,3R)-adamantan-1-yl)amino)phenyl)-3-butyl-6-methoxy-3,4-dihydroisoquinolin-2(1H)-yl)-3-(trimethylsilyl)prop-2-yn-1-one] | > 1 | 0.021 |  |  | IC50 (A431 cells; [3]): > 1 µM
9 | COc1ccc2c(c1)C[C@H](C1CCC1)N(C(=O)C#C[Si](C)(C)C)[C@H]2c1ccc(NC23CC4CC(CC(C4)C2)C3)cc1 [Compound A-7, 1-((1S,3R)-1-(4-(((3R,5R,7R)-adamantan-1-yl)amino)phenyl)-3-cyclobutyl-6-methoxy-3,4-dihydroisoquinolin-2(1H)-yl)-3-(trimethylsilyl)prop-2-yn-1-one] | > 1 | 0.021 |  |  | 
10 | CCCC[C@H]1Cc2cc(OC)ccc2[C@H](c2ccc(NC34CC5CC(CC(C5)C3)C4)c(C#N)c2)N1C(=O)C#C[Si](C)(C)C [Compound A-15, 2-(((3R,5R,7R)-adamantan-1-yl)amino)-5-((1S,3S)-3-butyl-6-methoxy-2-(3-(trimethylsilyl)propioloyl)-1,2,3,4-tetrahydroisoquinolin-1-yl)benzonitrile] | > 1 | 0.021 |  |  | 
11 | CCCC[C@H]1Cc2cc(OC)ccc2[C@H](c2ccc(NC3CCC3)cc2)N1C(=O)C#C[Si](C)(C)C [Compound A-25, 1-((1S,3S)-3-butyl-1-(4-(cyclobutylamino)phenyl)-6-methoxy-3,4-dihydroisoquinolin-2(1H)-yl)-3-(trimethylsilyl)prop-2-yn-1-one] | > 1 | 0.171 |  |  | 
12 | CCCC[C@H]1Cc2cc(OC)ccc2[C@H](c2ccc(NC34CC5CC(CC(C5)C3)C4)cc2)N1C(=O)C#C[Si](C)(C)CC [Compound A-33, 1-((1S,3S)-1-(4-(((1s,3R)-adamantan-1-yl)amino)phenyl)-3-butyl-6-methoxy-3,4-dihydroisoquinolin-2(1H)-yl)-3-(ethyldimethylsilyl)prop-2-yn-1-one] | > 1 | 0.023 |  |  | 
13 | CCCC[C@H]1Cc2cc(OC)ccc2[C@H](c2ccc(NC34CC5CC(CC(C5)C3)C4)c(Cl)c2)N1C(=O)C#C[Si](C)(C)C [Compound A-46] |  | 0.31 |  |  | IC50 (A431 cells; [3]): ≥ 10 µM
14 | C#CC(=O)N1[C@@H](CCCC)Cc2cc(OC)ccc2[C@H]1c1ccc(NC23CC4CC(CC(C4)C2)C3)cc1 [Compound B-2] |  |  | > 1 | 0.192 | 
15 | C#CC(=O)N1[C@@H](c2ccc(NC34CC5CC(CC(C5)C3)C4)cc2)c2ccc(OC)cc2C[C@@H]1C1CCC1 [Compound B-4] |  |  |  | 0.016 | 
16 | C#CC(=O)N1[C@@H](CCCC)Cc2cc(OC)ccc2[C@@H]1C12CC(F)(C1)C2 [Compound B-5] |  |  | > 1 | 0.145 | 
17 | C#CC(=O)N1[C@@H](CCCC)Cc2cc(OC)ccc2[C@H]1C12CC(F)(C1)C2 [Compound B-6] |  |  | > 1 | 0.067 | 
18 | C#CC(=O)N1[C@@H](CCCC)Cc2cc(OC)ccc2[C@@H]1c1ccc(NC23CC4CC(CC(C4)C2)C3)c(C#N)c1 [Compound B-8] |  |  |  | 0.021 | 

Row | Compound | IC50 [1] [µM] | IC50 [2, 4] [µM] | IC50 (A431 cells; [5]) [µM] | IC50 [2, 6] [µM] | other results
19 | C#CC(=O)N1[C@@H](CCCC)Cc2cc(OC)ccc2[C@@H]1c1ccc(N2CCC(F)(F)C2)cc1 [Compound B-14] |  |  | > 1 | 0.06 | 
20 | C#CC(=O)N1CCc2cc(OC)ccc2C1c1ccccc1 (stereo not shown) [Compound B-24] |  |  | 3.5 | 0.198 | 
21 | C#CC(=O)N1CCc2cc(OC)ccc2C1c1ccc(F)cc1 (stereo not shown) [Compound B-26] |  |  | > 10 | 0.395 | 
22 | C#CC(=O)N1CCc2cc(OC)ccc2C1c1ccc(C#N)cc1 (stereo not shown) [Compound B-28] |  |  | 7.5 | 0.18 | 
23 | C#CC(=O)N1[C@@H](CCCC)Cc2cc(OC)ccc2[C@@H]1c1ccccc1 [Compound B-29] |  |  | 8.73 | 0.037 | 
24 | C#CC(=O)N1[C@@H](CCCC)Cc2cc(OC)ccc2[C@@H]1c1ccc(C#N)cc1 [Compound B-31] |  |  | 3.67 | 0.016 | 
25 | C#CC(=O)N1[C@@H](c2ccc(C#N)cc2)c2ccc(OC)cc2C[C@@H]1C [Compound B-32, 4-[(1S,3S)-6-methoxy-3-methyl-2-(prop-2-ynoyl)-1,2,3,4-tetrahydroisoquinolin-1-yl]benzonitrile] |  |  | 3.5 | 0.42 | 
26 | C#CC(=O)N1[C@@H](CC2CC2)Cc2cc(OC)ccc2[C@@H]1c1ccc(C#N)cc1 [Compound B-37] |  |  | > 10 | 0.049 | 
27 | C#CC(=O)N1[C@@H](COCC)Cc2cc(OC)ccc2[C@@H]1c1ccc(C#N)cc1 [Compound B-39] |  |  | > 10 | 0.195 | 
28 | C#CC(=O)N1[C@@H](CCCC)Cc2cc(F)ccc2[C@@H]1c1ccc(NC23CC4CC(CC(C4)C2)C3)cc1 [Compound B-40] |  |  | 4.52 | 0.006 | 
29 | C#CC(=O)N1[C@@H](COC)Cc2cc(OC)ccc2[C@@H]1c1ccc(NC23CC4CC(CC(C4)C2)C3)cc1 [Compound B-41] |  |  | 3.88 | 0.0035 | 
30 | C#CC(=O)N1[C@@H](CCCC)Cc2ccc(OC)cc2[C@@H]1c1ccc(NC23CC4CC(CC(C4)C2)C3)cc1 [Compound B-42, 1-((1S,3S)-1-(4-(((3R,5R,7R)-adamantan-1-yl)amino)phenyl)-3-butyl-7-methoxy-3,4-dihydroisoquinolin-2(1H)-yl)prop-2-yn-1-one] |  |  | 6.58 | 0.0145 | 
31 | C#CC(=O)N1[C@@H](CCC)Cc2cc(OC)ccc2[C@@H]1c1ccc(NC23CC4CC(CC(C4)C2)C3)cc1 [Compound B-43] |  |  | 4.1 | 0.006 | 
32 | C#CC(=O)N1[C@@H](CCC)Cc2cc(OC)ccc2[C@H]1c1ccc(NC23CC4CC(CC(C4)C2)C3)cc1 [Compound B-44] |  |  | > 1 | 0.054 | 
33 | C#CC(=O)N1[C@@H](COC)Cc2cc(OC)ccc2[C@H]1c1ccc(NC23CC4CC(CC(C4)C2)C3)cc1 [Compound B-45] |  |  |  | 0.047 | 
34 | C#CC(=O)N1[C@@H](CC2CC2)Cc2cc(OC)ccc2[C@@H]1c1ccc(NC23CC4CC(CC(C4)C2)C3)cc1 [Compound B-50] |  |  |  | 0.01 | 
35 | C#CC(=O)N1[C@H](c2ccc(NC34CC5CC(CC(C5)C3)C4)cc2)c2ccc(OC)cc2C[C@@H]1C1CCC1 [Compound B-51] |  |  | 4.9 | 0.072 | 
